Where a name gives a salt, the structure may show the parent alone.
Key:
[1] = Solubility of moxifloxacin HCl in the presence of sodium chloride; format: physicochemical; conditions: for Solubility moxifloxacin HCl: 5° C.; for solubility thermodynamic: sodium chloride solution, 5 °C, thermodynamic from solid
Experimental: For a dosage range of from 100 mg to 1000 mg at active compound concentrations of from 0.04% to 0.4% (w/v) of moxifloxacin hydrochloride, it is thus possible to adjust the osmotic pressure to physiological conditions by adding from 0.4% to 0.9% of sodium chloride. […] This ensures that, even on short-term cold storage, there is no precipitation of the active compound as a result of exceeding the saturation solubilities. [table]

physchem = conditions: water (aqueous solution without NaCl)

COc1c(N2C[C@@H]3CCCN[C@@H]3C2)c(F)cc2c(=O)c(C(=O)O)cn(C3CC3)c12 [moxifloxacin HCl, 1-cyclopropyl-7-([S,S]-2,8-diazabicyclo[4.3.0]non-8-yl)-6-fluoro-1,4-dihydro-8-methoxy-4-oxo-3-quinolonecarboxylic acid]
Solubility moxifloxacin HCl ([1]; NaCl 0.7 % (w/v)): 0.2 % (w/v) | Solubility moxifloxacin HCl ([1]; NaCl 0.8 % (w/v)): 0.2 % (w/v) | solubility thermodynamic ([1]; saline or isotonic, NaCl 0.1 % (w/v)): 11000 µg/mL | solubility thermodynamic ([1]; saline or isotonic, NaCl 0.2 % (w/v)): 7000 µg/mL | solubility thermodynamic ([1]; saline or isotonic, NaCl 0.3 % (w/v)): 5000 µg/mL | solubility thermodynamic ([1]; saline or isotonic, NaCl 0.4 % (w/v)): 4000 µg/mL | solubility thermodynamic ([1]; saline or isotonic, NaCl 0.5 % (w/v)): 3000 µg/mL | solubility thermodynamic ([1]; saline or isotonic, NaCl 0.6 % (w/v)): 2000 µg/mL | solubility thermodynamic ([1]; saline or isotonic, NaCl 0.9 % (w/v)): 1000 µg/mL | solubility thermodynamic ([1]; water, NaCl 0 % (w/v)): 18000 µg/mL | solubility thermodynamic (physchem): ~24000 µg/mL
